Measurements as given in PubChem BioAssay (NCI).
Values joined by “and” are separate entries in the source; they are usually repeats but may differ in a detail not shown here. Identical values can stand only once.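 Where inhibition never reached the appropriate level, the endpoint shown equals the highest concentration tested. Otherwise, values were interpolated linearly from a five-concentration, 48-hour dose response in 96-well plates. At the GI50, growth is halved. Definition used: TGI = concentration required for complete inhibition of growth.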

Key:
Test in all cases: NCI anticancer screen, dose series, 48 h
SF-295 CNS = test system: SF-295 CNS
RXF 393 renal = test system: RXF 393 renal
IGROV1 ovarian = test system: IGROV1 ovarian
SF-268 CNS = test system: SF-268 CNS
HS 578T breast = test system: HS 578T breast
OVCAR-3 ovarian = test system: OVCAR-3 ovarian
MALME-3M melanoma = test system: MALME-3M melanoma
K-562 leukemia = test system: K-562 leukemia
DU-145 prostate = test system: DU-145 prostate
SF-539 CNS = test system: SF-539 CNS

`CN(C)CC(=O)Nc1ccc2ncnc(Nc3ccc(Oc4cccc(C(F)(F)F)c4)c(Cl)c3)c2c1` gave a GI50 (SF-295 CNS) of 2.02 µM, a TGI (SF-295 CNS) of 4.28 µM and a GI50 (RXF 393 renal) of 1.61 µM. The TGI (RXF 393 renal) was 3.25 µM, the GI50 (IGROV1 ovarian) was 1.17 µM and the TGI (IGROV1 ovarian) was 3.03 µM. The GI50 (SF-268 CNS) was 1.97 µM, the TGI (SF-268 CNS) was 5.44 µM and the GI50 (HS 578T breast) was 1.78 µM. It also gave a TGI (HS 578T breast) of 4.58 µM, a GI50 (OVCAR-3 ovarian) of 1.61 µM and a TGI (OVCAR-3 ovarian) of 3.51 µM. The GI50 (MALME-3M melanoma) was 1.68 µM, the TGI (MALME-3M melanoma) was 3.36 µM and the GI50 (K-562 leukemia) was 2.21 µM. For the same compound, the TGI (K-562 leukemia) was 6.52 µM, the GI50 (DU-145 prostate) was 2.13 µM and the TGI (DU-145 prostate) was 6.78 µM. For the same compound, the GI50 (SF-539 CNS) was 1.73 µM and the TGI (SF-539 CNS) was 3.18 µM.

Work on `CC(C)(C)c1cc(/C=N/NC(=O)c2ccccc2NC(=O)c2cccs2)c(O)c(C(C)(C)C)c1` yielded a GI50 (SF-295 CNS) of 0.521 µM, a TGI (SF-295 CNS) of 17.9 µM and a GI50 (RXF 393 renal) of 3.02 µM. The TGI (RXF 393 renal) was 47.4 µM, the GI50 (IGROV1 ovarian) was 0.683 µM and the TGI (IGROV1 ovarian) was > 100 µM. For the same compound, the GI50 (SF-268 CNS) was 0.668 µM, the TGI (SF-268 CNS) was > 100 µM and the GI50 (HS 578T breast) was 5.13 µM. For the same compound, the TGI (HS 578T breast) was 42.6 µM, the GI50 (OVCAR-3 ovarian) was 1.06 µM and the TGI (OVCAR-3 ovarian) was 10.5 µM. For the same compound, the GI50 (MALME-3M melanoma) was 2.11 µM, the TGI (MALME-3M melanoma) was 26.7 µM and the GI50 (K-562 leukemia) was 1.1 µM. The TGI (K-562 leukemia) was 51.6 µM, the GI50 (DU-145 prostate) was 4.13 µM and the TGI (DU-145 prostate) was > 100 µM. For the same compound, the GI50 (SF-539 CNS) was 1.93 µM and the TGI (SF-539 CNS) was 22.1 µM.

With `COc1cccc(-c2cc(=O)c3cc(N4CCOCC4)ccc3[nH]2)c1` the GI50 (SF-295 CNS) was 0.204 µM, the GI50 (IGROV1 ovarian) was 0.145 µM and the TGI (IGROV1 ovarian) was > 100 µM. It also gave a GI50 (SF-268 CNS) of 0.149 µM, a TGI (SF-268 CNS) of 57.6 µM and a TGI (HS 578T breast) of 0.055 µM. The TGI (OVCAR-3 ovarian) was 0.0412 µM, the GI50 (MALME-3M melanoma) was 0.019 µM and the GI50 (K-562 leukemia) was 0.0267 µM. The TGI (K-562 leukemia) was 0.179 µM, the GI50 (DU-145 prostate) was 0.0546 µM and the GI50 (SF-539 CNS) was 0.0193 µM. For the same compound, the TGI (SF-539 CNS) was 0.0505 µM and 0.42 µM.

In the case of `COc1ccc(C(=NN=C(N)N)c2ccc(OC)cc2)cc1`, the GI50 (SF-295 CNS) is reported as 2.72 µM, the TGI (SF-295 CNS) is reported as 11.2 µM and the GI50 (RXF 393 renal) is reported as 1.81 µM. It also gave a TGI (RXF 393 renal) of 4.82 µM, a GI50 (IGROV1 ovarian) of 2.97 µM and a TGI (IGROV1 ovarian) of 13.7 µM. For the same compound, the GI50 (SF-268 CNS) was 2.34 µM, the TGI (SF-268 CNS) was 12 µM and the GI50 (HS 578T breast) was 1.75 µM. It also gave a TGI (HS 578T breast) of 6.93 µM, a GI50 (OVCAR-3 ovarian) of 1.74 µM and a TGI (OVCAR-3 ovarian) of 4.76 µM. The GI50 (MALME-3M melanoma) was 2.85 µM, the TGI (MALME-3M melanoma) was 11.6 µM and the GI50 (K-562 leukemia) was 3.7 µM. For the same compound, the TGI (K-562 leukemia) was 15.4 µM, the GI50 (DU-145 prostate) was 2.6 µM and the TGI (DU-145 prostate) was 10.8 µM.

For `COc1c(/C=C/C=O)cc2c(c1OC)OCO2`, the TGI (SF-295 CNS) was 52.1 µM, the TGI (RXF 393 renal) was > 100 µM and the TGI (IGROV1 ovarian) was 82.4 µM. The TGI (SF-268 CNS) was > 100 µM, the TGI (HS 578T breast) was > 100 µM and the TGI (OVCAR-3 ovarian) was > 100 µM. For the same compound, the TGI (MALME-3M melanoma) was 64 µM, the TGI (DU-145 prostate) was > 100 µM and the TGI (SF-539 CNS) was > 100 µM.

`COc1ccc(C2CC(c3ccc(Nc4ccnc5cc(Cl)ccc45)cc3)=NN2C=O)cc1` (stereo not given) was tested, and the GI50 (SF-295 CNS) was 24.8 µM, the TGI (SF-295 CNS) was > 100 µM and the GI50 (RXF 393 renal) was 11.6 µM. For the same compound, the TGI (RXF 393 renal) was > 100 µM, the GI50 (IGROV1 ovarian) was 43.1 µM and the TGI (IGROV1 ovarian) was > 100 µM. For the same compound, the GI50 (SF-268 CNS) was > 100 µM, the TGI (SF-268 CNS) was > 100 µM and the GI50 (HS 578T breast) was > 100 µM. For the same compound, the TGI (HS 578T breast) was > 100 µM, the GI50 (OVCAR-3 ovarian) was 14.5 µM and the TGI (OVCAR-3 ovarian) was 55.4 µM. The GI50 (MALME-3M melanoma) was > 100 µM, the TGI (MALME-3M melanoma) was > 100 µM and the GI50 (DU-145 prostate) was 38 µM. For the same compound, the TGI (DU-145 prostate) was > 100 µM, the GI50 (SF-539 CNS) was > 100 µM and the TGI (SF-539 CNS) was > 100 µM.

`C/C(=N\OCC(O)CNCCSCc1ccccc1)c1ccccc1Cl` (stereo not given) gave a TGI (SF-295 CNS) of 36.2 µM, a TGI (RXF 393 renal) of 37 µM and a TGI (SF-268 CNS) of 34.6 µM. The TGI (HS 578T breast) was 89.5 µM, the TGI (OVCAR-3 ovarian) was 34.6 µM and the TGI (MALME-3M melanoma) was 37.2 µM. The TGI (K-562 leukemia) was 92.9 µM, the TGI (DU-145 prostate) was 52.2 µM and the TGI (SF-539 CNS) was 36.9 µM.

Work on `CC(=O)CC/C=C(\C)[C@H](O)[C@H](C)C(=O)O[C@H]1C[C@H](C)C=C2C=C[C@@]3(C)O[C@@H](O)CC(=O)[C@]3(C)[C@H]21` yielded a GI50 (SF-295 CNS) of 0.746 µM, a TGI (SF-295 CNS) of 6.51 µM and a GI50 (RXF 393 renal) of 0.233 µM. It also gave a TGI (RXF 393 renal) of 0.867 µM, a GI50 (IGROV1 ovarian) of 0.42 µM and a TGI (IGROV1 ovarian) of 3.42 µM. The GI50 (SF-268 CNS) was 0.612 µM, the TGI (SF-268 CNS) was 5.63 µM and the GI50 (HS 578T breast) was 0.492 µM. It also gave a TGI (HS 578T breast) of 4.48 µM, a GI50 (OVCAR-3 ovarian) of 0.614 µM and a TGI (OVCAR-3 ovarian) of 3.52 µM. For the same compound, the GI50 (MALME-3M melanoma) was 0.588 µM, the TGI (MALME-3M melanoma) was 2.7 µM and the GI50 (DU-145 prostate) was 0.332 µM. For the same compound, the TGI (DU-145 prostate) was 4.16 µM, the GI50 (SF-539 CNS) was 0.366 µM and the TGI (SF-539 CNS) was 2.37 µM.
